# Tests used:
# [1] = biological target: T1, p38α (Homo sapiens, UniProt Q16539); assay: Western blot survey of p38 isoform degradation in MDA-MB-231 cells (incl. proteasome rescue, CHX chase, washout); type: cell-based; conditions: MDA-MB-231 cells, western blot; for Dmax: read-out: p38α Dmax (maximum percentage of degradation achieved)
# T1 construct: selectively degrades p38α, whereas exemplary PROTAC 46 (10-atom linker, phenyl attachment) selectively degrades p38δ in MDA-MB-231 cells; endogenous in cells; host or cells: MDA-MB-231
# T1 sequence (Q16539 whole entry, canonical isoform): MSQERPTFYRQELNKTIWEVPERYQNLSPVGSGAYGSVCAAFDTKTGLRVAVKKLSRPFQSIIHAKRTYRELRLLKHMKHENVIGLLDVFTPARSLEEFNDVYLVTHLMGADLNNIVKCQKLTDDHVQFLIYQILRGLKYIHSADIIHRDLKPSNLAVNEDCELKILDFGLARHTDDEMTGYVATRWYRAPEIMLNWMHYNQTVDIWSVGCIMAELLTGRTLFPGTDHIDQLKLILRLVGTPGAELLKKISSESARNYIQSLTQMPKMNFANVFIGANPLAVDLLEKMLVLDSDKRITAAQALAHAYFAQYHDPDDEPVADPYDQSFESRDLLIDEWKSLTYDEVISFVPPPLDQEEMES
# Protocol: (§1) FIGS. 11A and 11B. Survey of p38 isoform degradation with foretinib-based VHL PROTACs (related to FIGS. 9A-9C and Table 13). (A) Western blots of amide series PROTACs tested in increasing concentrations (0.025, 0.100, 0.250, 1.0, 5.0 μM) on MDA-MB-231 cells, in duplicate. (B) Same as in (A) but with the phenyl series PROTACs. Summary table of the DC50 (concentration at which half-maximal degradation is achieved) and Dmax (maximum percentage of degradation achieved) is reported, per exemplary PROTAC, in Table 13.
# (§2) FIGS. 13A, 13B, 13C, and 13D. Exemplary compounds 50 and 46 degrade p38 isoforms in a manner that is rapid, sustained, and proteasome-dependent. (A) MDA-MB-231 cells were either pre-treated or not with the proteasome inhibitor epoxomicin (1 μM) or the neddylation inhibitor MLN4924 (1 μM) for 30 minutes and subsequently treated with either vehicle (DMSO), exemplary compound 50 (250 nM), or exemplary compound 46 (250 nM) for 6 hours. (B) Quantitative real-time PCR was performed after 24 hours of treatment with either vehicle (DMSO), exemplary compound 50 (250 nM), or exemplary compound 46 (250 nM) in MDAMB-231 cells. The dotted line represents DMSO-treated conditions standardized to a value of 1.0 and mRNA abundance (per treatment group) is represented as a foldchange relative to that value. Data is based on biological duplicates and is normalized to beta-tubulin. (C) Cycloheximide (CHX) chase assay. MDA-MB-231 cells were pre-treated with 100 μg/mL CHX for 1 hour prior to treating for the indicated times with either vehicle (DMSO), exemplary compound 50 (250 nM), or exemplary compound 46 (250 nM). Tubulin-normalized p38α and p38δ abundance values are reported beneath individual lanes. (D) MDA-MB231 cells were treated with either vehicle (DMSO), exemplary compound 50 (250 nM), or exemplary compound 46 (250 nM) for 24 hours before re-plating onto new plastic in fresh medium for an additional 24, 48, or 72 hours (“washout” conditions).
# (§3) Cell culture. MDA-MB-231 and HeLa cells were obtained from the American Type Culture Collection (ATCC), cultured in RPMI-1640 (1×) and DMEM (1×) medium, respectively, containing 10% fetal bovine serum (FBS) and 1% penicillin-streptomycin and grown in a humidified incubator at 37° C. and 5% CO2.
# (§4) Lysates from MDA-MB-231 cells were washed once with ice cold PBS (1×), followed by lysis in buffer containing 25 mM Tris [pH 7.5], 0.25% sodium deoxycholate, 1% Triton X-100, supplemented with 1× protease inhibitor cocktail (Roche) and phosphatase inhibitors (10 mM NaF, 1 mM Na3VO4, and 20 mM β-glycerophosphate), unless otherwise noted. Lysates were spun at 14,000×g for 10 minutes at 4° C. and supernatant was evaluated for protein content using a Pierce BCA Protein Assay (Thermo Fisher Scientific). 25 to 50 μg of protein was loaded onto 10% SDS-PAGE gels or 4-20% Criterion TGX precast gradient gels (Bio-Rad), transferred to nitrocellulose membranes, and probed with the specified antibodies overnight at 4° C. in 1×TBS-Tween (Tris buffered saline plus 0.02% Tween 20) containing 5% non-fat milk. Immunoblots were visualized using a Bio-Rad ChemiDoc imaging instrument and subsequently processed and quantified using the accompanying Bio-Rad ImageLab software.
# (§5) MDA-MB-231 cells were plated at 3×10^5 cells per well in a 6-well dish, allowed to adhere overnight, and switched to serum-free RPMI-1640 (1×) media for 16 hours. Cells were then pre-treated with cycloheximide (Sigma) at 100 μg mL^−1 for 1 hour prior to adding either vehicle (DMSO) or PROTAC (250 nM). At the indicated timepoints, cells were immediately placed on ice, rinsed with 1×PBS, lysed, and boiled.
# (§6) MDA-MB-231 cells were plated at 1.5×10^5 cells per well in a 6-well dish and allowed to adhere overnight. On the following day, all cells were treated with either vehicle (DMSO) or PROTAC (250 nM). […]
# [2] = biological target: T2, p38δ (Homo sapiens, UniProt O15264); assay: as above; type: cell-based; conditions: MDA-MB-231 cells, western blot
# T2 construct: endogenous in cells; host or cells: MDA-MB-231 (intact cells for degradation; cleared cell lysate for CETSA)
# T2 sequence (O15264 1-365): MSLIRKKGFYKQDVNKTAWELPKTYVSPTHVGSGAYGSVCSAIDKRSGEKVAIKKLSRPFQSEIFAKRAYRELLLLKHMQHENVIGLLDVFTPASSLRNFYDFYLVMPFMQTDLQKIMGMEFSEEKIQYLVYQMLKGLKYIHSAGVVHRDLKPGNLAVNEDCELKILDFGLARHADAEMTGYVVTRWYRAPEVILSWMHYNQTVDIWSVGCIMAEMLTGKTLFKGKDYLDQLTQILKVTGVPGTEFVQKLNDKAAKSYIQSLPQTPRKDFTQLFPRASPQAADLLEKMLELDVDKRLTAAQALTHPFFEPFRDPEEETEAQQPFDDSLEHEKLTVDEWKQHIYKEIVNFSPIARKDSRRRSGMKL
# Protocol: as §1, §2, §3, §4, §5, §6
# [3] = biological target: T1, p38α; assay: Cellular assay of target protein degradation (MDA-MB-231 cells, ELISA); type: cell-based
# Protocol: (§7) Protocol of the cellular assay of target protein degradation (MDA-MB-231 cells, ELISA).
# (§8) For detection Cell Signaling PathScan Sandwich ELISA Catalog#12850 was used. MDA-MB-231 cells and […] were cultured in ATCC DMEM+ATCC FBS and plated 40,000/well 100 μl/well in RPMI P/S with 5% CSS Omega (bovine) serum into a 96 well plate. The cells were grown for a minimum of 3 days, dosed with compounds in 0.1% DMSO (diluted with 5% CSS) and incubated with aspiration for 4 hours. 100 μl of 1× Cell Signaling lysis buffer #9803 (36 mL dH2O+4 mL Cell Signaling lysis buffer) was added. The incubation was placed on cold room shaker for 10 minutes at speed 8-9.5 μl to 100 μL of Diluent was transferred to ELISA plate (0.15 μg/mL-0.075 μg/mL) and stored at 4° C. overnight on cold room shaker speed 5 (gentle swirl) and then shaken next morning at 37° C. for 30 minutes. The preparation was washed 4×200 μl with ELISA wash buffer and aspirated with eight-channel aspirator. 100 μl/well of target protein detection antibody was added after, which the preparation was covered and shaken at 37° C. for 1 hour. 100 μl TMB was added, and the mixture was shaken for 5 min while under observation. When TMB turned light blue, 100 μl of Stop solution was added, and the mixture was shaken and read at 450 nm. Also read at 562 nm for background subtraction.
# [4] = biological target: T2, p38δ; assay: as above; type: cell-based; conditions: for DC50: read-out: p38δDC50/nM [MDA-MB-231]
# Protocol: as §7, §8
# [5] = biological target: T3, cMET (Homo sapiens, UniProt P08581); assay: as above; type: cell-based
# T3 construct: endogenous in cells; host or cells: MDA-MB-231
# T3 sequence (P08581 25-1390): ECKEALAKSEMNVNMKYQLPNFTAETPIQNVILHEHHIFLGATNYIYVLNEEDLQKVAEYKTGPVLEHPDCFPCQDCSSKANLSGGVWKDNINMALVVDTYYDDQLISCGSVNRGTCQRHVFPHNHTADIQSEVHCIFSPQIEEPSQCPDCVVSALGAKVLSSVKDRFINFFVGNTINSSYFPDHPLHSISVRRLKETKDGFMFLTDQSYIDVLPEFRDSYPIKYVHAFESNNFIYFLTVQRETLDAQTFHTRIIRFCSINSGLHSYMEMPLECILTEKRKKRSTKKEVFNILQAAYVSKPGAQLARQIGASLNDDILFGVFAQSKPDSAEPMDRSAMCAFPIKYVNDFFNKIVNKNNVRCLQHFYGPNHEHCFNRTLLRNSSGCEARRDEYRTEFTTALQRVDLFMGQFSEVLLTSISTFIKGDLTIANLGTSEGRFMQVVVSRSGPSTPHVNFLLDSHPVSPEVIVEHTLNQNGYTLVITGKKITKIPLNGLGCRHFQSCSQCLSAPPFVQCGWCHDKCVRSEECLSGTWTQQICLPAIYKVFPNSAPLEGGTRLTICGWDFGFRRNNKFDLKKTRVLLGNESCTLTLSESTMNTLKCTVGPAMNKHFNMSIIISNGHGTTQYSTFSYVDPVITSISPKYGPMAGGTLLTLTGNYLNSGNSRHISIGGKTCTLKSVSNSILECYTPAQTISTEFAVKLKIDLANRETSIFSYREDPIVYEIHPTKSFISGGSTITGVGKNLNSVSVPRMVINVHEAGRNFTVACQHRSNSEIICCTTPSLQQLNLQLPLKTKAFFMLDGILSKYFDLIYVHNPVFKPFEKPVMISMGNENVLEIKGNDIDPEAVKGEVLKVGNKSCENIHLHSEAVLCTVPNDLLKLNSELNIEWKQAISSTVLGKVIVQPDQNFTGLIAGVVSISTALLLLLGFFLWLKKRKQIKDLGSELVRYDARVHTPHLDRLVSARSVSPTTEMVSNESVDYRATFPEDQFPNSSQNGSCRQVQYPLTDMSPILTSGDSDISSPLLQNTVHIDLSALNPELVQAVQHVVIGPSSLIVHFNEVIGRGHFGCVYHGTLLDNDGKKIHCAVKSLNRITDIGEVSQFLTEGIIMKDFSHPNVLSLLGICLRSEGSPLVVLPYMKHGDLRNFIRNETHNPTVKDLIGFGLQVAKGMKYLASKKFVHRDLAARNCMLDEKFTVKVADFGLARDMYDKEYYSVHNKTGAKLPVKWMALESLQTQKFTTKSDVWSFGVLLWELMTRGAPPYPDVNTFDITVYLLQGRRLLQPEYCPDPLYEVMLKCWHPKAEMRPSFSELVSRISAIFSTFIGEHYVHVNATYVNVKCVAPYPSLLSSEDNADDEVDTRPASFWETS
# Protocol: as §7, §8
# [6] = biological target: T4, MAK (Homo sapiens, UniProt P20794); assay: KINOMEscan in vitro kinase binding; conditions: screened at 1000 nM; lower number = stronger binding
# T4 construct: purchased DiscoverRx Corporation (KINOMEscan platform, service)
# T4 sequence (P20794 whole entry): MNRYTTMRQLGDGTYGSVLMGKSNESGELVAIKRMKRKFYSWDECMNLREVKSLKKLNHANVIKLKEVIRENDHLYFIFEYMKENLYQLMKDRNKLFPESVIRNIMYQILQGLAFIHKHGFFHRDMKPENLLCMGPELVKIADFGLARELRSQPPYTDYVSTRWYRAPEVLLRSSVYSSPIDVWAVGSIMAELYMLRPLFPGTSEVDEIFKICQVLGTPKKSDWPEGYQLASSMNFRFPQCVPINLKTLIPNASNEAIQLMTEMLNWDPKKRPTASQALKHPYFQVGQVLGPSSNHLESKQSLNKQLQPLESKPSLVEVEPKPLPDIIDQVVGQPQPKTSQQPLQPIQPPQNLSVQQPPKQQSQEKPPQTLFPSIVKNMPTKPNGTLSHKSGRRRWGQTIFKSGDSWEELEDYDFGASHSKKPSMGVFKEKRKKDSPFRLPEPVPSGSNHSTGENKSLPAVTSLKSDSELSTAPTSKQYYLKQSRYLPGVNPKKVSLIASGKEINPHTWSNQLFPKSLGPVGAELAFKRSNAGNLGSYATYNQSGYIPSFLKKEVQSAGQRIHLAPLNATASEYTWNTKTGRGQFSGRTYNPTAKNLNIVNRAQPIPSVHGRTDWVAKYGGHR
# Protocol: In Vitro Kinase Binding Affinity Determination for Example 1 and Example 2.
# PROTAC in vitro binding affinities (Kd) to c-Met was determined using the KINOMEscan™ platform (DiscoverRx Corporation). The compounds were solubilized in DMSO and sent to DiscoverRx Corporation as 10 μM stock solutions.
# Example 1 and Example 2 were screened at a 1000 nM concentration, and the results of the binding interactions are reported in “% Ctrl”, where a lower number indicates stronger binding. % Ctrl=[(test compound signal−positive control signal)/(negative control signal−positive control signal)]×100, wherein the negative control was DMSO.
# [7] = read-out: p38α DC50 (concentration at which half-maximal degradation is achieved)
DC50 ([1]; read-out: p38α DC50) [nM],Dmax [1] [%],DC50 [2] [nM],Dmax [2] [%],DC50 [3] [nM],Dmax [3] [%],Dmax [4] [%],DC50 [4] [nM],"DC50 [1, 7] [nM]",Dmax [5] [%],% Ctrl [6] [% Ctrl],Compound
≥ 5000,17,4900,52,,,,,,,,COc1cc2c(Oc3ccc(NC(=O)C4(C(=O)Nc5ccc(F)cc5)CC4)cc3F)ccnc2cc1OCCCOCCOCCCOc1cc(-c2scnc2C)ccc1CNC(=O)[C@@H]1C[C@@H](O)CN1C(=O)[C@H](C(C)C)N1Cc2ccccc2C1=O [Ex. 5]
> 5000,25,> 5000,44,> 5000,27,43,> 5000,,,,COc1cc2c(Oc3ccc(NC(=O)C4(C(=O)Nc5ccc(F)cc5)CC4)cc3F)ccnc2cc1OCCCCOCCCCOc1cc(-c2scnc2C)ccc1CNC(=O)[C@@H]1C[C@@H](O)CN1C(=O)[C@H](C(C)C)N1Cc2ccccc2C1=O [Ex. 45]
> 5000,20,> 5000,33,> 5000,12,23,> 5000,,,,"COc1cc2c(Oc3ccc(NC(=O)C4(C(=O)Nc5ccc(F)cc5)CC4)cc3F)ccnc2cc1OCCCOCCCOCCCOc1cc(-c2scnc2C)ccc1CNC(=O)[C@@H]1C[C@@H](O)CN1C(=O)[C@H](C(C)C)N1Cc2ccccc2C1=O [Ex. 47, N-(3-fluoro-4-((7-(3-(3-(3-(2-(((2S,4R)-4-hydroxy-1-((S)-3-methyl-2-(1-oxoisoindolin-2-yl)butano-yl)pyrrolidine-2-carboxamido)methyl)-5-(4-methylthiazol-5-yl)phenoxy)propoxy)-propoxy)propoxy)-6-methoxyquinolin-4-yl)oxy)phenyl)-N-(4-fluorophenyl)cyclopropane-1,1-dicarboxamide]"
,99.4,91.7,91,18.8,99,91,91.7,18.8,44,,"COc1cc2c(Oc3ccc(NC(=O)C4(C(=O)Nc5ccc(F)cc5)CC4)cc3F)ccnc2cc1OCCCOCCOCCC(=O)N[C@H](C(=O)N1C[C@H](O)C[C@H]1C(=O)NCc1ccc(-c2scnc2C)cc1)C(C)(C)C [Ex. 48, N-(3-fluoro-4-((7-(3-(2-(3-(((S)-1-((2S,4R)-4-hydroxy-2-((4-(4-methylthiazol-5-yl)benzyl)carbamoyl)pyrrolidin-1-yl)-3,3-dimethyl-1-oxobutan-2-yl)amino)-3-oxopropoxy)ethoxy)-propoxy)-6-methoxyquinolin-4-yl)oxy)phenyl)-N-(4-fluorophenyl)cyclopropane-1,1-dicarboxa-mide]"
,91,51.4,81,40.1,91,81,51.4,40.1,49,,"COc1cc2c(Oc3ccc(NC(=O)C4(C(=O)Nc5ccc(F)cc5)CC4)cc3F)ccnc2cc1OCCOCCOCCC(=O)N[C@H](C(=O)N1C[C@H](O)C[C@H]1C(=O)NCc1ccc(-c2scnc2C)cc1)C(C)(C)C [Ex. 49, N-(3-fluoro-4-((7-(2-(2-(3-(((S)-1-((2S,4R)-4-hydroxy-2-((4-(4-methylthiazol-5-yl)benzyl)carba-moyl)pyrrolidin-1-yl)-3,3-dimethyl-1-oxobutan-2-yl)amino)-3-oxopropoxy)ethoxy)ethoxy)-6-methoxyquinolin-4-yl)oxy)phenyl)-N-(4-fluorophenyl)cyclopropane-1,1-dicarboxamide]"
,,,,,,,,,,55,"COc1cc2c(Oc3ccc(NC(=O)C4(C(=O)Nc5ccc(F)cc5)CC4)cc3F)ccnc2cc1OCCCN1CCOCC1 [Foretinib, foretinib, reference compound]"

# Reference: patent US20180353501A1 (Arvinas, Inc., priority 2017, published 2018)
